The values below come from US9301945B2, “Methods for treating inflammatory conditions and states, and cancers by antagonizing NF-κB activation” (Emory University, priority 2011, dated 2016).

For experiment [1], the system named is RAW264.7 osteoclast precursors. Put plainly: Osteoclastogenesis assay with TRAP staining. Conditions: RANKL 30 ng/ml, 7 days. The class given is cell-based, mouse. As for the experimental part:
(§1) The mouse preosteoblastic cell line MC3T3-E1, clone 14 (MC3T3) and the mouse monocytic cell line RAW264.7 were purchased from the Amerimay Type Culture Collection (Manassas, Va.) and cultured as described in, for example, Li et al. (2007) J Bone Miner Res 22(5): 646-655; and Yamaguchi et al. (2009) Int J Mol Med 24(5): 671-675.
RAW264.7 cells were cultured in 96-well plates in α-MEM supplemented with 10% FBS and 100 IU/ml penicillin, and 100 μg/ml streptomycin at a density of 1×10^4 cells/well. Cells were cultured for 6 days with RANKL ([…]) pre-incubated for 10 minutes with crosslinking anti-poly-histidine antibody (2.5 μg/ml), to induce osteoclast formation. Strontium ranelate, sodium ranelate or strontium chloride were added at the indicated doses. After 6 days of culture, the cells were fixed and stained for TRAP, a specific maker of the osteoclast phenotype, using a leukocyte acid phosphatase kit. TRAP+ cells with three or more nuclei were defined as osteoclasts and were quantitated under light microscopy, and normalized for cell size based on number of nuclei. Five wells per group were averaged. Representative wells were photographed under bright field microscopy using a Nikon Eclipse TE2000-S inverted microscope equipped with a digital camera (QImaging Corp., Burnaby, BC, Mayada).
To establish an in vitro osteoclastogenesis model suitable for investigation of strontium ranelate activity, the monocytic cell line RAW 264.7 was employed and differentiated into osteoclasts by addition of the key osteoclastogenic cytokine RANKL was induced. The effect of strontium ranelate on osteoclast differentiation was tested over a dose range from 1 μM to 200 μM and cultures were stained with TRAP 7 days later and osteoclast formation quantitated.

For experiment [2], the system named is TNFα-induced NF-κB activation in MC3T3 osteoblast precursors. Put plainly: NF-κB luciferase reporter assay in MC3T3 cells stimulated with TNFα. The class given is cell-based, mouse. To be noted: 24 h. An excerpt: (§2) The NF-κB responsive reporter pNF-κB-Luc (BD Biosciences) and the Smad responsive reporter pGL3-Smad were used as previously described by in, for example, Li et al. (2007) J Bone Miner Res 22(5): 646-65. Briefly, reporter plasmids were transfected into MC3T3 or RAW264.7 cells (1×10^5 cells/well) using Lipofectamine 2000 reagent (Invitrogen) in α-MEM without FBS and antibiotics. Five hours later the medium was changed to α-MEM containing 10% FBS plus antibiotics and MC3T3 cells treated with TNFα (1 or 10 ng/ml as indicated) or RAW264.7 cells treated with RANKL (30 ng/ml) to stimulate NF-κB activity. In some experiments, Smad activity was induced in MC3T3 cells using TGFβ (1 ng/ml). Strontium ranelate, sodium ranelate or strontium chloride were added at the indicated doses. Cells were extracted with passive lysis buffer (Promega Corporation, Madison Wis.) 24 hours later, and luciferase activity was measured using the Luciferase Assay System of Promega, on a microplate luminometer (Turner Designs, Sunnyvale, Calif., USA).
A major mechanism by which TNFα mediates its suppressive action on osteoblasts is through NF-κB activation. See Li et al. (2007) J Bone Miner Res 22(5): 646-655; and Nanes (2003) Gene 321: 1-15.

The subject of experiment [3] is TGFβ-induced Smad activation in MC3T3 cells. The experiment in a line: Smad luciferase reporter assay in MC3T3 cells (TGFβ with or without TNFα). In kind it is cell-based, mouse. Conditions: 24 h; for direct effect on basal Smad activity: 500 μM; for effect on TNFα suppression of TGFβ-induced Smad activity: TGFβ 1 ng/ml, TNFα 1 ng/ml, concentrations of 100 μM and above.
From the text: as §2
TGFβ is a potent early osteoblast precursor commitment and recruitment factor. See, e.g., See Janssens et al. (2005) Endocr Rev 26(6): 743-774; and Tang et al. (2009) Nat Med 15(7): 757-765. It has been reported that TNFα antagonizes TGFβ-induced Smad signaling in osteoblast precursors (see, e.g., Li et al. (2007) J Bone Miner Res 22(5): 646-655) and consequently investigated whether strontium ranelate may alleviate TNFα-induced suppression of TGFβ-induced Smad signaling in preosteoblasts. MC3T3 cells were transiently transfected with a Smad responsive luciferase reporter and Smad-induced transcription quantitated following stimulation by TGFβ.
On the technique in general: A reporter such as luciferase makes a cellular process visible.

Experiment [4] relates to postmenopausal women. To be noted: clinical trials; cited from earlier work.
For experiment [5], the system named is RANKL-induced NF-κB activation in RAW264.7 osteoclast precursors. The experiment in a line: NF-κB luciferase reporter assay in RAW264.7 cells stimulated with RANKL. Conditions: RANKL 30 ng/ml, dose range 1 to 1000 μM, 24 h. In kind it is cell-based, mouse.
From the text: as §2
See Caudrillier et al. (2010) Mol Pharmacol 78(4):569-576.

In experiment [6] the test system is MC3T3 osteoblast precursors. Put plainly: Osteoblast differentiation / mineralization assay with Alizarin Red-S staining. The class given is cell-based, mouse. Conditions: for osteoblast mineralization (calcium deposition, Alizarin Red-S): 200 μM, 17 days of culture, mineralizing medium, no TNFα. As for the experimental part: as §1
For mineralization assays MC3T3 cells were plated in 12-well dishes at a density of 1.0×10^5 cells per well in mineralization medium (α-MEM supplemented with 10% FBS, L-ascorbic acid (100 μg/ml) and 4 mM β-glycerophosphate) as previously described in, for example, Li et al. (2007) J Bone Miner Res 22(5): 646-655; and Sugimoto et al. (2000) Int J Mol Med 5(5): 515-520. Strontium ranelate, sodium ranelate or strontium chloride were added at the indicated doses and cells replenished with fresh medium every 3 days. At 17-18 days of culture, cells were rinsed with PBS and calcium deposition was visualized by fixing the cells in 75% ethanol for 30 minutes at 4° C. followed by staining with Alizarin Red-S (40 mM, pH 6.2) for 30 minutes at room temperature. Excess stain was removed by copious washing with distilled water. Plates were imaged using a flatbed smayner (Epson Perfection 1660 Photo).
The mechanism by which strontium ranelate promotes osteoblast differentiation was investigated using an in vitro model. The in-vitro model used to investigate utilizes the MC3T3 mouse pre-osteoblast cell line that differentiates spontaneously into active osteoblasts within 21 days of culture in medium containing ascorbic acid and β-glycerophosphate (mineralizing medium).

Experiment [7] has as its system NF-κB nuclear translocation. To be noted: reported by Caudrillier et al. (2010); cited from earlier work.
[8] abbreviates: in vitro osteoblast differentiation and mineralization assays.

Structures are written as SMILES. Entries after “also recorded” stand apart in the source; their conditions may differ.

For `N#Cc1c(N(CC(=O)[O-])CC(=O)[O-])sc(C(=O)[O-])c1CC(=O)[O-].[Sr+2].[Sr+2]` [strontium ranelate, distrontium salt of 2-[N,N-di(carboxymethyl)amino]-3-cyano-4-carboxymethylthiophene-5-carboxylic acid], the “RANKL-induced osteoclast formation (TRAP+ multinucleated cells)” value (“RANKL-induced osteoclast formation” below) is “significantly suppressed” in experiment [1] (1 μM) and “potently suppresses osteoclast formation at both doses” in experiment [1] (10 or 100 μM). The “TNFα-induced NF-κB activity (luciferase)” value in experiment [2] (TNFα 1 ng/ml, 200 μM) is on record as “significantly suppressed TNFα-induced NF-κB activity”; in experiment [2] (high TNFα 10 ng/ml, dose range 1 to 1000 μM), “dose dependently suppressed TNFα-induced NF-κB activity”; in experiment [2] (low TNFα 1 ng/ml, dose range 1 to 1000 μM), “dose dependently suppressed TNFα-induced NF-κB activity”. Also, the “direct effect on basal Smad activity” value in experiment [3] is “no direct effects on Smad activity”. Moreover, the “effect on TNFα suppression of TGFβ-induced Smad activity” value in experiment [3] is on record as “significantly alleviates the suppressive effect of TNFα on TGFβ-induced Smad activation”. In addition, the bone loss result in experiment [4] is listed as “protect against bone loss”. The fracture risk entry in experiment [4] was “reduce fracture risk”. For the same compound, the “RANKL-induced NF-κB activity (luciferase)” value in experiment [5] is “potently antagonize RANKL-induced NF-κB activation”; in experiment [5] (listed as Strontium ranelate), “dose-dependently and significantly blunted RANKL-induced NF-κB activity”. Further, the “osteoblast mineralization (calcium deposition, Alizarin Red-S)” value in experiment [6] was “promote a robust osteoblast mineralization; also recorded: robust enhancement in mineralization”. Also, the “effect on TNFα suppression of basal mineralization” value in experiment [6] (TNFα 5 ng/ml, 10 μM) was “completely reversed the suppressive effect of TNFα on basal mineralization”. Moreover, the “mineralization relative to basal levels in presence of TNFα” value in experiment [6] (TNFα 5 ng/ml, 100 and 200 μM) is reported as “potently augmented mineralization over basal levels”. Further, in experiment [6] (setting [8]), the “lowest dose achieving significant biological activities” value is given as 1 μM. In addition, the saturating dose in experiment [6] (setting [8]) was found to be 100 µM. Also, the “RANKL-induced NF-κB nuclear translocation” value in experiment [7] was “antagonize RANKL-induced NF-κB nuclear translocation”.
As for `N#Cc1c(N(CC(=O)[O-])CC(=O)[O-])sc(C(=O)[O-])c1CC(=O)[O-].[Na+].[Na+].[Na+].[Na+]` [sodium ranelate], in experiment [1] (10 or 100 μM), the “RANKL-induced osteoclast formation” value is “neither strontium chloride nor sodium ranelate had any effect on osteoclast formation”. Besides, in experiment [2] (TNFα 1 ng/ml, 200 μM), the “TNFα-induced NF-κB activity (luciferase)” value is given as “completely ineffective”. In experiment [3], the “direct effect on basal Smad activity” value is reported as “no direct effect on basal Smad activity” and the “effect on TNFα suppression of TGFβ-induced Smad activity” value is given as “significantly relieved the suppressive effect of TNFα on TGFβ-induced Smad activity”. Also, in experiment [6], the “osteoblast mineralization (calcium deposition, Alizarin Red-S)” value is listed as “no stimulatory effects on osteoblast mineralization”.
Regarding `[Cl-].[Cl-].[Sr+2]` [strontium chloride], in experiment [1] (10 or 100 μM), the “RANKL-induced osteoclast formation” value is reported as “neither strontium chloride nor sodium ranelate had any effect on osteoclast formation”. For the same compound, in experiment [2] (TNFα 1 ng/ml, 200 μM), the “TNFα-induced NF-κB activity (luciferase)” value is “completely ineffective”. Besides, the “RANKL-induced NF-κB activity (luciferase)” value in experiment [5] is “no significant effect; also recorded: failed to suppress NF-κB activity”. The “osteoblast mineralization (calcium deposition, Alizarin Red-S)” value in experiment [6] is on record as “no stimulatory effects on osteoblast mineralization”.
